The text below walks through data of paper PMC9457593, “Design, Synthesis, and Evaluation of New Mesenchymal–Epithelial Transition Factor (c-Met) Kinase Inhibitors with Dual Chiral Centers” (Molecules, 2022).

Several values for one entry are separate records, joined by “and”; a condition that tells them apart may be missing. Equal values may be shown once. Read-outs that look alike come from different tables or passages of the source.

Experiment [1] deals with MHCC97H cells. Details: method as in PMID 29393886. The conditions noted are these: compounds bearing a single chiral center, from our previous work; read-out: MHCC97H Cell IC50; cited from earlier work.
Experiment [2] has as its system MHCC97H cells. Briefly: MTT antiproliferative assay. Type of experiment: cell-based, human. An excerpt: On the basis of our former study, compounds 12a-b were designed and first screened for their antiproliferative activity against the c-Met-driven human hepatocarcinoma cells (MHCC97H), using a standard MTT assay. Tepotinib was used as a positive control.
On the technique in general: Tetrazolium dyes change colour on reduction, which living cells bring about.

A further experiment concerns the target T1, c-Met kinase (Homo sapiens, UniProt P08581).
T1 construct: purchased Carna Bioscience 08-151
Briefly: c-Met kinase inhibition assay (Mobility Shifting Assay). Type of experiment: biochemical. Particulars: mean ± SD of three independent experiments. How it is done: The kinase inhibition assay was carried out according to the principle of MSA (Mobility Shifting Assay) detection. […] Using triple dilution method, 10 gradient concentration groups were received. Varying concentrations of compounds were transported in 384-well plates, and 100% DMSO was set as negative control. After adding kinase buffer, the 384-well plates were centrifuged and vortexed, followed by 10 min of incubation. […] Finally, adding stop solution ended kinase reaction, and the conversion% was detected by a microplate reader (Caliper EZ Reader II, Perkin Elmer, Waltham, Massachusetts, […]). The statistics were analyzed by GraphPad Prism 8, using log (inhibitor) vs. response–variable slope to fit the dose–effect curve.

Experiment [3] relates to MHCC97H cells. Kind of experiment: Wound healing (cell scratch) assay. Particulars: 1, 2, and 3 nM; 0, 6, 12, and 24 h; vs vehicle control. Type of experiment: cell-based, human. How it is done: MHCC97H cells were seeded in a 6-well plate and cultured for 24 h; subsequently, the confluent monolayer cells were scratched with a 10 μL pipette tip. After that, the wound was washed with PBS thrice to remove the non-adherent cell debris. In addition, each petri dish had media containing (R, S)-12a in gradient concentrations (1, 2, and 3 nM) added. At 0, 6, 12, and 24 h, changes of cell scratch in area were photographed by phase contrast microscope and finally measured and analyzed by Image J.

The test system of experiment [4] is HaCat (human immortalized keratinocytes). Kind of experiment: Toxicity towards normal cells (HaCat). Particulars: for IC50: Homo sapiens, HaCaT, read-out: IC50 on HaCat.
The next experiment relates to MHCC-97H tumor cells. Kind of experiment: Tumor cell morphology. Type of experiment: cell-based, human. The conditions noted are these: 10 and 50 nM. The procedure: Co-incubation with compound (R, S)-12a (1, 10, and 50 nM) led to a significant reduction in […] cell viability. Red arrowheads indicated distinct morphological changes, such as intracytoplasmic particles increasing, the cell shape change, and loss of adherent property. […] Aggregation, lysis, and cell debris also occurred.

A further experiment has as its system AKT. Kind of experiment: Immunofluorescence staining and Western blotting of AKT and p-AKT in MHCC97H cells. Type of experiment: cell-based, human. How it is done:
(§1) MHCC97H cells were seeded into confocal dishes and then treated with vehicle control (1‰ DMSO) and compound (R, S)-12a (2.5 nM). Cells were washed thrice with PBS, fixed with 4% paraformaldehyde for 15 min, and punched with 0.2% triton X100 and then blocked with 500 μL of blocking buffer at room temperature for 1 h. Cells were incubated with a primary monoclonal antibody (c-Met, p-c-Met, AKT, and p-AKT) at 4 °C for 12 h and then washed with PBS thrice, followed by incubation with the fluorescence secondary antibody (Alexa Fluor 488-labeled Goat Anti-Mouse IgG (H + L)-A0428) and labeling of nuclei by Hoechst33342 (MA0126, Meilunbio, Dalian, Liaoning, China). The cells were finally visualized by a confocal microscope (Carl Zessi Microscopy LSM 880, Oberkochen, Germany). The average fluorescence intensity of FITC channel was analyzed by Image J, and the illustration was drafted by GraphPad Prism8.
(§2) MHCC97H cells were then homogenized with lysis buffer. The protein concentrations were detected using a BCA Protein Assay Kit (Pierce BCA Protein Assay Kit 23227, Thermo, Waltham, MA, USA), and their extracts were reconstituted within loading buffer (Beyotime, Shanghai, China) and inactivated for 5 min at 100 °C. Subsequently, proteins (20 μg) were fractionated by 10% SDS-PAGE and transferred to PVDF membranes. Then, PVDF membranes were blocked in 10% skimmed milk and incubated with the appropriate dilution of primary antibodies, including c-Met (Abcam, Cambridge, UK), p-c-Met (Abcam), AKT (Cell Signaling Technology), p-AKT (Cell Signaling Technology), and GAPDH (Cell Signaling Technology, […], MA, USA). The above primary antibodies were then reacted with HRP-conjugated secondary antibody, and immunoreactive bands were visualized by an ECL Detection Reagent (36208ES60, Yeasen, Shanghai, China) and were estimated through densitometry with a chemiluminescence imaging system (Tanon, Shanghai, China). Intensities of the blots were quantified with Image J and analyzed by GraphPad Prism 8.
A general note: In western blotting, separated proteins are transferred to a membrane and probed.

Experiment [5] concerns MHCC97H cells. Briefly: Annexin V-FITC/PI apoptosis analysis (flow cytometry). Format: cell-based, human. Particulars: 48 h. The procedure:
MHCC97H cells were incubated with varying concentrations of compound (R, S)-12a or diluent (1‰ DMSO, as a negative control) for 48 h. The cells were harvested and washed with PBS twice. Then, 500 μL of binding buffer suspended cells were added. The cells were stained with 5 μL of Annexin V-FITC and 10 μL of PI (KGA105, KeyGEN, BioTECH, Nanjing, Jiangsu, China). Then, the cells were incubated at room temperature for 15 min without light exposure. Apoptosis was analyzed using a CytoFLXE flow cytometer (BECKMAN COLTER, Brea, CA, USA).
In general terms: A flow cytometer gives signals particle by particle.

Experiment [6] deals with LO2 (human normal liver cells). Kind of experiment: Toxicity towards normal cells (LO2). Particulars: for IC50: Homo sapiens, read-out: IC50 on LO2.
For experiment [7], the system named is MHCC97H cells. Kind of experiment: Cell cycle analysis (PI, flow cytometry). Type of experiment: cell-based, human. Particulars: 10 nM, 48 h. The procedure: MHCC97H cells were incubated with varying concentrations of compound (R, S)-12a or 1‰ DMSO for 48 h. The cells were collected by centrifugation, washed with PBS, and fixed in 70% ice-cold ethanol at 4 °C for 12 h. After the removal of ethanol, each sample was re-suspended in 500 μL of staining buffer containing 50 μL of RNase A and 450 μL of propidium iodide (KGA511, KeyGEN, BioTECH, Nanjing, Jiangsu, China) and incubated at room temperature, avoiding light exposure for 30 min. The DNA content of the cells was measured using a CytoFLXE flow cytometer (BECKMAN COLTER, Brea, CA, USA).

Experiment [8] has as its system MHCC97H cells. Kind of experiment: Hoechst 33342 staining for apoptosis morphology. The conditions noted are these: 1, 5, and 10 nM, 48 h, vs vehicle control. Format: cell-based, human. An excerpt: Tumor cell apoptosis is an important stage in the effective treatment of cancer. To evaluate the capacity of compound (R, S)-12a to induce apoptosis in human cancer cell lines, we used Hoechst 33342 staining to investigate the effect of compound (R, S)-12a on MHCC97H cells. Hoechst 33342 staining was used to examine apoptosis through morphological observation.

A further experiment concerns c-Met. Kind of experiment: Immunofluorescence staining and Western blotting of c-Met and p-c-Met in MHCC97H cells. Type of experiment: cell-based, human. How it is done:
as §1, §2

The mark [9] stands for this setting: MTT, 48 h, mean ± SD of three independent experiments, read-out: MHCC97H Cell IC50.
[10] abbreviates: immunofluorescence, 2.5 nM, 48 h.

T1 sequence (P08581 956-1390 limits assumed): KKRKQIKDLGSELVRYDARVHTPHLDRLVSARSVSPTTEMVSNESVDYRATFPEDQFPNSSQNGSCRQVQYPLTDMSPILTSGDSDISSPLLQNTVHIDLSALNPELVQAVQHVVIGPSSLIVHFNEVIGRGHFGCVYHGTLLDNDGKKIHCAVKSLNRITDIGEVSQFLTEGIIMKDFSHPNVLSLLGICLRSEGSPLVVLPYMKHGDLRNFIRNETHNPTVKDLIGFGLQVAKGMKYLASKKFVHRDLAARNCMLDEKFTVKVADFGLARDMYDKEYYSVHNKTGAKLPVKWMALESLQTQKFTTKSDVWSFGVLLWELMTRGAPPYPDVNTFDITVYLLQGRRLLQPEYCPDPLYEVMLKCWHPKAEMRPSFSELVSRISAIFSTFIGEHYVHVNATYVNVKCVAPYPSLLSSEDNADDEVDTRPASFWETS

A word on the IC50: it is the point on the concentration scale where inhibition reaches its midpoint. In the case of `CC(c1cccc(-c2ncc(OCC3CCN(C)CC3)cn2)c1)n1nc(-c2cccc(C#N)c2)ccc1=O` (racemic) [(±)-5b], the 50% inhibitory concentration (IC50) with MHCC97H cells [1] was 35.3 ± 11 nM.
For `C[C@H](c1cccc(-c2ncc(OCC3CCN(C)CC3)cn2)c1)n1nc(-c2cccc(C#N)c2)ccc1=O` [(R)-5b], the IC50 with MHCC97H cells [1] is 3.7 ± 1 nM.
In the case of `CC(Oc1cnc(-c2cccc(C(C)n3nc(-c4cccc(C#N)c4)ccc3=O)c2)nc1)C1CCN(C)CC1` [(R, R)-12a], the IC50 with MHCC97H cells [2] (setting [9]) turned out to be 30 ± 8 nM; at c-Met kinase it was 28.7 ± 5 nM.
Turning to `CC(Oc1cnc(-c2cccc(C(C)n3nc(-c4cccc(C#N)c4)ccc3=O)c2)nc1)C1CCN(C)CC1` [(R, S)-12a], the wound closure result in the experiment with MHCC97H cells [3] is on record as “significantly suppressed wound closure”. The 50% inhibitory concentration (IC50) in the experiment on MHCC97H cells [2] (Homo sapiens, MHCC97H, Table 2, read-out: IC50 on MHCC-97H) was found to be 2 ± 2 nM. The IC50 with MHCC97H cells [2] (setting [9]) was determined as 2.1 nM. In experiment [4], the “Selectivity Index (HaCat vs MHCC-97H)” value is given as 953.5 and the IC50 was 1910 ± 250 nM. Moreover, the tumor cell morphology result in the experiment on MHCC-97H tumor cells was “the cells shrank and floated and no longer adhered to the wall”. For the same compound, the “phosphorylation level of AKT protein” value in the experiment with AKT (Western blot, dose-dependent) is reported as “decrease”. Besides, in the experiment with AKT (setting [10]), the “fluorescence intensity of AKT (total AKT protein)” value is recorded as “did not change significantly” and the “fluorescence intensity of p-AKT” value was “decreased significantly”. Besides, at c-Met kinase, the IC50 was 1.56 ± 1 nM. Further, the “proportions of early and late apoptosis cells” value in the experiment with MHCC97H cells [5] (1 nM) is listed as 8.9%. The “proportions of early and late apoptosis cells” value in the experiment with MHCC97H cells [5] (5 nM) is given as 33.3%. Moreover, in experiment [6], the “Selectivity Index (LO2 vs MHCC-97H)” value was determined as 5750.0 and the IC50 amounted to 11500 ± 1530 nM. Further, in the experiment on MHCC97H cells [7], the “proportion of cells in the G1 phase” value worked out at 70.99% and the “proportion of cells in the G2/M phases” value is listed as 12.44%. Moreover, the “nuclear morphology by Hoechst 33342 staining” value in the experiment on MHCC97H cells [8] was “obvious nucleolar pyknosis, DNA fragmentation, and chromatin condensation”. Moreover, the “phosphorylation level of c-Met” value in the experiment on c-Met (Western blot, dose-dependent) is reported as “decrease”. In addition, in the experiment with c-Met (setting [10]), the “fluorescence intensity of c-Met (total c-Met protein)” value is “did not change significantly” and the “fluorescence intensity of p-c-Met” value is recorded as “decreased significantly”.
Take `C[C@@H](c1cccc(-c2ncc(OCC3CCN(C)CC3)cn2)c1)n1nc(-c2cccc(C#N)c2)ccc1=O` [(S)-5b]: in the experiment on MHCC97H cells [1], the IC50 is 118 ± 56 nM.
On to `CC(Oc1cnc(-c2cccc(C(C)n3nc(-c4cccc(C#N)c4)ccc3=O)c2)nc1)C1CCN(C)CC1` [(S, R)-12a], for which the IC50 in the experiment on MHCC97H cells [2] (setting [9]) is 205 nM and 210 nM; at c-Met kinase, 195 ± 73.2 nM.
As for `CC(Oc1cnc(-c2cccc(C(C)n3nc(-c4cccc(C#N)c4)ccc3=O)c2)nc1)C1CCN(C)CC1` [(S, S)-12a], the half-inhibitory concentration (IC50) in the experiment with MHCC97H cells [2] (setting [9]) was 48.3 nM and 48 nM; at c-Met kinase, 35.8 ± 6.8 nM.
Regarding `CN1CCC(COc2cnc(-c3cccc(Cn4nc(-c5cccc(C#N)c5)ccc4=O)c3)nc2)CC1` [Tepotinib, tepotinib, reference compound], the IC50 amounted to 13 ± 2 nM in the experiment with MHCC97H cells [2] (Homo sapiens, MHCC97H, 48 h, read-out: MHCC97H Cell IC50); 13 ± 2 nM in the experiment with MHCC97H cells [2] (Homo sapiens, MHCC97H, read-out: IC50 on MHCC-97H); 1950 ± 349 nM in [4]; 8730 ± 841 nM in [6].
“(R,R)-3-(1-(1-(3-(5-(1-((1-Methyl-1,2,3,6-tetrahydropyridin-4-yl)oxy)ethyl)pyrimidin-2-yl)phenyl)ethyl)-6-oxo-1,6-dihydropyridazin-3-yl)benzonitrile [(R, R)-12b]”: the IC50 in the experiment with MHCC97H cells [2] (setting [9]) turned out to be 130 ± 38 nM.
Still for that read-out and setting: for “(R,S)-3-(1-(1-(3-(5-(1-((1-Methyl-1,2,3,6-tetrahydropyridin-4-yl)oxy)ethyl)pyrimidin-2-yl)phenyl)ethyl)-6-oxo-1,6-dihydropyridazin-3-yl)benzonitrile [(R, S)-12b]” the value was 9 ± 5 nM.
For the compound “(S,R)-3-(1-(1-(3-(5-(1-((1-Methyl-1,2,3,6-tetrahydropyridin-4-yl)oxy)ethyl)pyrimidin-2-yl)phenyl)ethyl)-6-oxo-1,6-dihydropyridazin-3-yl)benzonitrile [(S, R)-12b]”, in the experiment with MHCC97H cells [2] (setting [9]), the IC50 turned out to be 616 ± 78.2 nM.
Consider “(S,S)-3-(1-(1-(3-(5-(1-((1-Methyl-1,2,3,6-tetrahydropyridin-4-yl)oxy)ethyl)pyrimidin-2-yl)phenyl)ethyl)-6-oxo-1,6-dihydropyridazin-3-yl)benzonitrile [(S, S)-12b]”, for which the IC50 in the experiment on MHCC97H cells [2] (setting [9]) turned out to be 136 ± 52 nM.
